This note sets out measurements from patent US8835479B2, “Agent for fungal dermatitis” (Nihon Nohyaku Co., Ltd., priority 2007, dated 2014).

The experiment relates to Malassezia restricta clinical isolate (R-4). The experiment is described as follows: Treatment effect on guinea pig seborrheic dermatitis model. In kind it is in vivo. The conditions noted are these: 1% luliconazole cream, 0.1 mL/inoculation site/day for 3 days, compared with 2% ketoconazole cream. How it is done:
Efficacy Evaluation Test 2. Treatment Effect on Guinea Pig Seborrheic Dermatitis Model
A guinea pig seborrheic dermatitis model was prepared using Malassezia restricta (Malassezia (M.) restricta) as a pathogenic fungus, and a skin symptom improving effect and a mycological treatment effect of 1% luliconazole cream were evaluated. As a comparative drug, 2% ketoconazole cream was used.
Luliconazole was prepared by the Applicant, and as 2% ketoconazole, a commercially available preparation was purchased and used.
As Malassezia restricta, a clinical isolate (R-4) isolated and identified by Teikyo University Institute of Medical Mycology was used. 2.5 mL of a modified Leeming (Leeming and Notman) liquid medium (m-LN. containing olive oil) was added per 1 g wet weight of the precultured strain for suspending therein to give an inoculum. […]
The hair on the back of the animal was shaved, and two inoculation sites (diameter 2 cm) were placed on either side of the back skin symmetrically. […] The skin symptoms were observed through the experiment from the inoculation starting day to the day of sacrifice and recorded by using the score. […] The skin section was successively observed from one end to the other end and the fungal content was evaluated by the criteria shown in the Table. The detection frequency of fungus in each section was determined. […]

`N#C/C(=C1/SC[C@@H](c2ccc(Cl)cc2Cl)S1)n1ccnc1` [Luliconazole, (−)-(E)-[(4R)-(2,4-dichlorophenyl)-1,3-dithioran-2-ylidene](1H-imidazol-1-yl)acetonitrile]: for the setting “PAS-stained skin sections, FIG. 2”, the mycological treatment effect entry was “showed mycological cure”. Further, the “skin symptom improving effect” value (FIG. 1) was “improved skin symptom”.
